Source: US12319721B2 (Purdue Research Foundation, priority 2018, dated 2025)
Where no end group is shown, it is not given here. [ ]: non-standard residue; d: D form. mp4 = 4 mini PEG linker

Columns and labels:
healed fractured femur [1] = test: Femur fracture model, postmortem four-point bend of the healed femur; type: in vivo, Swiss Webster mice; conditions: 16 days, 0.1, 1 and 10 nmol daily subcutaneous, n=5
healed fractured femur [2] = test: Femur fracture model, postmortem four-point bend of the healed femur, CD-1 mice; type: in vivo, CD-1 male mice; conditions: 4 weeks, 50 nmol daily subcutaneous (50×), n=10
Experimental: (§1) The targeted conjugates were synthesized using standard Fmoc solid-phase peptide synthesis, as described above. To ensure the conjugates' activity, mouse pre osteo-blast (MCTC3-1) cells were treated with the targeted and untargeted compounds for three days at concentrations from 1 pM to 100 nM. After three days of treatment, the cells were harvested, and the ribonucleic acid (RNA) was purified from the cells. Expression levels of ALP, RUNx2, OSX, osteo-pontin (OPN), collagen 1A (Col-1A), OPG, RANKL, scle-rostin gene (SOST), and OC were quantified via quantitative reverse transcription polymerase chain reaction (RT-qPCR). Once the biological activity of the conjugates was confirmed, they were tested in vivo in a fracture model. Aseptic surgical techniques were used to place a 23-gage needle as in intramedullary nail in the femur of anesthetized, 12-week-old Swiss Webster mice for internal fixation before fracture. Femur fractures were induced using a drop weight fracture device from RISystem. The mice received buprenorphine for three days post fracture. The mice were dosed subcutaneously each day for two weeks, three weeks, 4 weeks, or 17 days. Fracture healing was assessed using microCT (Scanco Medical Ag). Morphometric parameters were quantified in the 100 widest slices of the fracture callus. Trabecular thickness (TbTh), trabecular spacing (TbSp), total volume (TV), and volume of calcified callus (BV) were calculated. Fractured femurs were tested for strength in a four-point bend to failure using an Electro Force TestBench (TA Instruments). Lower supports were 10 mm apart on the anterior face of the femur in contact with the proximal and distal diaphysis. Upper supports were 4 mm apart and spanned the entire fracture callus on the diaphysis. Force was applied from the posterior face of the femur with a displacement rate of 0.3 mm/sec. Peak load, yield load, stiffness, displacement post yield, work to fracture, and deformation data were generated. […]

[3] = system: fracture callus of fractured femur; test: Femur fracture model, microCT of the fracture callus, CD-1 mice; type: in vivo, CD-1 male mice; conditions: 4 weeks, 50 nmol daily subcutaneous (50×), n=10
Experimental: as §1, with “The mice were dosed subcutaneously each day for two weeks, three weeks, 4 weeks, or 17 days.” left out, “calculated.” for “calculated. Fractured femurs were tested for strength in a four-point bend to failure using an Electro Force TestBench (TA Instruments). Lower supports were 10 mm apart on the anterior face of the femur in contact with the proximal and distal diaphysis. Upper supports were 4 mm apart and spanned the entire fracture callus on the diaphysis. Force was applied from the posterior face of the femur with a displacement rate of 0.3 mm/sec. Peak load, yield load, stiffness, displacement post yield, work to fracture, and deformation data were generated.”

[4] = system: fracture callus of fractured femur; test: Femur fracture model, microCT of the fracture callus (BV/TV, BV, TbTh, TbSp); type: in vivo, Swiss Webster mice
Description: All in vivo data included herein are from Swiss Webster mice. […] 1×concentration represents 1 nmol/day, 10× represents 10 nmol/day, 100×represents 100 nmol/day and most studies have an n of 5.
The term “BV/TV” means the bone volume divided by total volume of the 100 thickest micro CT slices of the fracture callus.
The term “TbTh” means the trabecular thickness of the 100 thickest micro CT slices of the fracture callus.
The term “[…]” means the overall bone volume of the 100 thickest micro CT slices of the fracture callus.
The term “TbSp” means the spacing between the trabecula in the 100 thickest micro CT slices of the fracture callus.
The targeted conjugates were synthesized using standard Fmoc solid-phase peptide synthesis, as described above. To ensure the conjugates' activity, mouse pre osteo-blast (MCTC3-1) cells were treated with the targeted and untargeted compounds for three days at concentrations from 1 pM to 100 nM. After three days of treatment, the cells were harvested, and the ribonucleic acid (RNA) was purified from the cells. Expression levels of ALP, RUNx2, OSX, osteo-pontin (OPN), collagen 1A (Col-1A), OPG, RANKL, scle-rostin gene (SOST), and OC were quantified via quantitative reverse transcription polymerase chain reaction (RT-qPCR). Once the biological activity of the conjugates was confirmed, they were tested in vivo in a fracture model. Aseptic surgical techniques were used to place a 23-gage needle as in intramedullary nail in the femur of anesthetized, 12-week-old Swiss Webster mice for internal fixation before fracture. Femur fractures were induced using a drop weight fracture device from RISystem. The mice received buprenorphine for three days post fracture. […] Fracture healing was assessed using microCT (Scanco Medical Ag). Morphometric parameters were quantified in the 100 widest slices of the fracture callus. Trabecular thickness (TbTh), trabecular spacing (TbSp), total volume (TV), and volume of calcified callus (BV) were calculated. Fractured femurs were tested for strength in a four-point bend to failure using an Electro Force TestBench (TA Instruments). Lower supports were 10 mm apart on the anterior face of the femur in contact with the proximal and distal diaphysis. Upper supports were 4 mm apart and spanned the entire fracture callus on the diaphysis. Force was applied from the posterior face of the femur with a displacement rate of 0.3 mm/sec. Peak load, yield load, stiffness, displacement post yield, work to fracture, and deformation data were generated. Statistical analysis was performed using a two-way analysis of variance (ANOVA) and a Tukey post-hoc analysis with significance reported at the 95% confidence level. All animal experiments were performed in accordance with protocols approved by Purdue University's Institutional Animal Care and Use Committee (IACUC).

healed fractured femur [5] = test: Femur fracture model, postmortem four-point bend of the healed femur; type: in vivo, Swiss Webster mice
Description: All in vivo data included herein are from Swiss Webster mice. All mice received an osteotomy on their right femur and received subcutaneous drug administration daily for either 2, 3 or 4 weeks, as indicated, for each compound. 1×concentration represents 1 nmol/day, 10× represents 10 nmol/day, 100×represents 100 nmol/day and most studies have an n of 5.
The term “Peak Load” means a postmortem 4 point bend of the healed femur. Peak load represents the maximum force the healed femur withstood before it refractured.
The targeted conjugates were synthesized using standard Fmoc solid-phase peptide synthesis, as described above. To ensure the conjugates' activity, mouse pre osteo-blast (MCTC3-1) cells were treated with the targeted and untargeted compounds for three days at concentrations from 1 pM to 100 nM. After three days of treatment, the cells were harvested, and the ribonucleic acid (RNA) was purified from the cells. Expression levels of ALP, RUNx2, OSX, osteo-pontin (OPN), collagen 1A (Col-1A), OPG, RANKL, scle-rostin gene (SOST), and OC were quantified via quantitative reverse transcription polymerase chain reaction (RT-qPCR). Once the biological activity of the conjugates was confirmed, they were tested in vivo in a fracture model. Aseptic surgical techniques were used to place a 23-gage needle as in intramedullary nail in the femur of anesthetized, 12-week-old Swiss Webster mice for internal fixation before fracture. Femur fractures were induced using a drop weight fracture device from RISystem. The mice received buprenorphine for three days post fracture. The mice were dosed subcutaneously each day for two weeks, three weeks, 4 weeks, or 17 days. Fracture healing was assessed using microCT (Scanco Medical Ag). Morphometric parameters were quantified in the 100 widest slices of the fracture callus. Trabecular thickness (TbTh), trabecular spacing (TbSp), total volume (TV), and volume of calcified callus (BV) were calculated. Fractured femurs were tested for strength in a four-point bend to failure using an Electro Force TestBench (TA Instruments). Lower supports were 10 mm apart on the anterior face of the femur in contact with the proximal and distal diaphysis. Upper supports were 4 mm apart and spanned the entire fracture callus on the diaphysis. Force was applied from the posterior face of the femur with a displacement rate of 0.3 mm/sec. Peak load, yield load, stiffness, displacement post yield, work to fracture, and deformation data were generated. Statistical analysis was performed using a two-way analysis of variance (ANOVA) and a Tukey post-hoc analysis with significance reported at the 95% confidence level. All animal experiments were performed in accordance with protocols approved by Purdue University's Institutional Animal Care and Use Committee (IACUC).

[6] = 17 days, 1, 10 and 100 nmol daily subcutaneous, n=5

For “Annexin_mp4_(D)E10: Annexin 1 N-terminal fragment with 10 glutamic acids, SEQ ID NO: 26, FIG. 81 (Ac-AMVSEFLKQAWFIENEEQEYVQTVY-{mini PEG-mini PEG-mini PEG-mini PEG-dE-dE-dE-dE-dE-dE-dE-dE-dE-dE})”, the “Max load (bone strength)” value (healed fractured femur [1]) was “raises bone strength” and the “Work to fracture (bone strength)” value (healed fractured femur [1]) was “raises bone strength”.
For “Preptin(1-34)_mp4_(D)E10: Preptin (1-34) with mp4 linker and 10 glutamic acids, SEQ ID NO: 24, FIG. 70 ({dE-dE-dE-dE-dE-dE-dE-dE-dE-dE-mp4}-VRGASQRWTDYQFFGVPYRPFDPLVAQSTSVD)”, the “Max load (bone strength)” value (healed fractured femur [2]) was “significantly raises bone strength”, the “Post yield displacement (bone brittleness)” value (healed fractured femur [2]) was “significantly reduces the bone brittleness” and the “Work to fracture (bone strength)” value (healed fractured femur [2]) was “significantly raises bone strength”. For the same substance, the “BV (bone volume, bone mineralization)” value [3] was “significantly raises bone mineralization” and the “BV/TV (bone density)” value [3] was “significantly raises bone density”.
In the case of “QK_mp4_(D)E10: VEGF mimetic 15 amino acid peptide QK attached by mini-peg spacer to 10 glutamic acids, SEQ ID NO: 25 ({dE-dE-dE-dE-dE-dE-dE-dE-dE-dE-mp4}-KLTWQELYQLKYKGI)”, the “BV (bone volume, bone mineralization)” value [4, 6] is reported as “raises bone mineralization”, the “BV/TV (bone density)” value [4, 6] is reported as “raises bone density” and the “Max load (bone strength)” value (healed fractured femur [5]; [6]) is reported as “raises bone strength”. The “Work to fracture (bone strength)” value (healed fractured femur [5]; [6]) was “raises bone strength”.
“substance P D10: substance P with 4 mini PEG linker and conjugated with 10 aspartate acids, SEQ ID NO: 4/43, FIG. 32 (chain 1 {Asp-Asp-Asp-Asp-Asp-Asp-Asp-Asp-Asp-Asp-mp4}-RPKPQQFFGLM; chain 2 DDDDDDDDDD[mp4]RPKPQQFFGLM; ends and bridges not checked)” was tested, and the BV/TV ([4]; 4 weeks, various concentrations (1, 10 and in part 100 nmol/day), subcutaneous daily) was “dose dependent manner” and the “peak load (max load) of healed femur” value (healed fractured femur [5]; 4 weeks, 10× (10 nmol/day)) was 30-35 Newtons.
